Data set [1] deals with benzodiazepine sites (BZ-1 receptors) in rat cortex (Rattus norvegicus, UniProt P18508+P62813). As to the kind of experiment: Saturation binding of ^3 H-2-oxo-quazepam in rat cortex. Conditions: for non-specific binding: 0.5 nM. How it is done:
(§1) Male Spraque-Sawley rats (200 to 250 gms) from Charles River Breeding Laboratories, Mass., were used to obtain brain tissue. Animals were decapitated and their brains removed. Synaptic membranes were obtained following the procedure disclosed in Life Sc., 35, 105 (1984). Cerebral cortex and cerebellum were dissected on ice and homogenized in 20 volumes of ice cold 0.32 M sucrose using a glass homogenizer fitted with a teflon pestle. The homogenates were then centrifuged at 48,000 X g for 10 min, and the resultant P2 pellets were washed twice by re-centrifugation in 50 mM Na/K phosphate buffered saline (pH 7.4). The washed pellets were pooled and then resuspended in the same buffer to a final concentration of 50 mg of original tissue weight/ml.
Saturation binding studies were conducted utilizing ^3 H-2-oxo-quazepamin rat cortex over a range of concentrations from 0.1 to 30 nM. The separation between specific and non-specific binding indicated the suitability of ^3 H-2-oxo-quazepam as a radioligand for benzodiazepine sites. Specific binding was defined as the difference between total binding and binding in the presence of 100 nM unlabeled clonazepam. At a concentration of 0.5 nM, non-specific binding for the radioligand constituted only 5 to 10 percent of total binding.

The conditions of data set [2]: doses far above tranquilizing doses; cited from earlier work.
Data set [3] has as its system ^3 H-flunitrazepam binding sites (benzodiazepine receptors BZ-1 and BZ-2) in rat cortex. Nature of the data set: ^3 H-flunitrazepam competition binding, rat cortex. To be noted: for difference in binding affinity for two BZ receptors (BZ-1 and BZ-2): vs ^3 H-flunitrazepam, average; for populations of binding sites distinguished: unlabeled drug vs ^3 H-flunitrazepam. How it is done:
as §1
(§2) Total reaction mixture volume was 1 ml which included: (a) 100 μl of either ^3 H-flunitrazepam or ^3 H-2-oxo-quazepam (tritiated at the α-carbon of the trifluoroethyl substituent located at the #1 position), yielding a final concentration of 0.5 nM (b) 100 μl of various concentrations of competing drugs dissolved or suspended in 50 mM phosphate buffered saline (pH 7.4) containing 4 mg/ml methylcellulose (c) 800 μl of tissue homogenate diluted such that a total of 5 mg of tissue was present in the final reaction mixture. In each competition experiment 25 to 30 concentrations of drug were used to obtain a complete dose response curve.
(§3) Incubations were carried out at 0° C. for 90 minutes. Samples were then filtered under vacuum through 25 mm diameter Whatman GF/B filters on a Millipore 1225 Sampling Manifold and quickly washed with 3×5 ml of ice-cold PBS buffer. Filter-bound radioactivity was quantified through liquid scintillation counting following overnight solubilization of the receptor-radioligand complex in "Scintosol" scintillation cocktail (Isolab, Inc.).
(§4) Compound assisted curve fitting was conducted on an Apple IIe computer using a program described in Br. J. Pharmacol., 80, 582P (1983) and Trends in Pharmaceutical Sci., 5, 47, (1984). Enhancements were made to the program to allow disk storage of data and printing of the program to allow disk storage of data and printing of the graphics display. The program determines whether the results from individual competition experiments are best interpreted on the basis of a 1 or 2 site model and also provides the most probable proportions of radioligand bound to each of the sites.
(§5) Selection among models was made by comparing the sum of squares residual values for the best single and 2-site models and determining through a partial F-test evaluation whether 2-site modelling produced a statistically meaningful (P<0.05) improvement in fit as described in Anal. Biochem., 107, 220 (1980). If not, the best single site model was considered the model of choice.

The target of data set [4] is T1, ^3 H-2-oxo-quazepam binding sites (BZ-1 receptors) in cerebellum (Rattus norvegicus, UniProt P18508+P62813).
T1 construct: Cerebral cortex and cerebellum were dissected on ice and homogenized; tissue Charles River Breeding Laboratories (rats); host or cells: rat cerebellum synaptic membranes (washed P2 pellet)
As to the kind of experiment: ^3 H-2-oxo-quazepam competition binding, cerebellum. As for the experimental part: as §1, §2, §3
Compound assisted curve fitting was conducted on an Apple IIe computer using a program described in Br. J. Pharmacol., 80, 582P (1983) and Trends in Pharmaceutical Sci., 5, 47, (1984). […]

The target of data set [5] is T2, ^3 H-2-oxo-quazepam binding sites (BZ-1 receptors) in rat cortex (Rattus norvegicus, UniProt P18508+P62813).
T2 construct: Cerebral cortex and cerebellum were dissected on ice and homogenized; tissue Charles River Breeding Laboratories (rats); host or cells: rat cerebral cortex synaptic membranes (washed P2 pellet)
Nature of the data set: ^3 H-2-oxo-quazepam competition binding, rat cortex. To be noted: for best-fit curve model: vs ^3 H-2-oxo-quazepam 0.5 nM. As for the experimental part: as §1, §2, §3, §4, §5

In data set [6] the test system is benzodiazepine (BZ) receptors in brain. Conditions: literature; cited from earlier work.
The target of data set [7] is T3, ^3 H-flunitrazepam binding sites in rat cerebellum (BZ-1) (Rattus norvegicus, UniProt P18508+P62813).
T3 construct: Cerebral cortex and cerebellum were dissected on ice and homogenized; tissue Charles River Breeding Laboratories (rats); host or cells: rat cerebellum synaptic membranes (washed P2 pellet)
As to the kind of experiment: ^3 H-flunitrazepam competition binding, rat cerebellum. As for the experimental part:
as §1, with “weight/ml. […]” for “weight/ml.”
Incubations were carried out at 0° C. for 90 minutes. […] Filter-bound radioactivity was quantified through liquid scintillation counting following overnight solubilization of the receptor-radioligand complex in "Scintosol" scintillation cocktail (Isolab, Inc.). […]

The conditions of data set [8]: cats; doses below those that caused ataxia; cited from earlier work.

Here are results for five compounds from patent US4997771A, “Method for measuring the BZ-1 receptor binding activity in a test sample or test compound” (Schering Corporation, priority 1987, dated 1991).

For `[3H]C([3H])(N1C(=O)CN=C(c2ccccc2F)c2cc(Cl)ccc21)C(F)(F)F` [^3 H-2-oxo-quazepam, 7-Chloro-1-^3 H-(2,2,2-Trifluoroethyl)-5-(2-Fluorophenyl)-1,3-Dihydro-2H-1,4 Benzodiazepine-2-One], in data set [1], the non-specific binding lay within 5 to 10%. Moreover, in data set [1] (0.1 to 30 nM, even after saturation of BZ-1 receptors), the “non-specific binding vs concentration” value is given as “linear relationship with increasing concentration”.

As for `O=C1CN=C(c2ccccc2)c2cc(Cl)ccc2N1CC(F)(F)F` [halazepam], the ataxic effects entry in data set [2] was “only weak ataxic effects”.

As to `O=C1CN=C(c2ccccc2F)c2cc(Cl)ccc2N1CC(F)(F)F` [2-oxo-quazepam, 7-chloro-1-(2,2,2-trifluoroethyl)-5-(2-fluorophenyl)-1,3-dihydro-2H-1,4 benzodiazepine-2-one], the “relative proportion of ^3 H-flunitrazepam binding sites, first-named subpopulation” value in data set [3] (rat cortex) is recorded as 55%. Moreover, the “relative proportion of ^3 H-flunitrazepam binding sites, second-named subpopulation” value in data set [3] (rat cortex) is recorded as 45%. Also, the “difference in binding affinity for two BZ receptors (BZ-1 and BZ-2)” value in data set [3] (rat cortex) is given as 22 fold. In addition, the “populations of binding sites distinguished” value in data set [3] (rat cortex) was “distinguished two subpopulations”; in data set [7] (vs ^3 H-flunitrazepam, cerebellum), “did not distinguish subpopulations of binding sites”. Further, the IC50 (usually the midpoint of a concentration-inhibition curve) in data set [3] (vs ^3 H-flunitrazepam 0.5 nM, cortex, 0° C., 90 minutes, read-out: IC50, high affinity component) stood at 9.3 nM; in data set [4], 13.6 nM; in data set [5] it was 16.8 nM; in data set [7], 8.8 nM. The “relative potency vs quazepam” value in data set [4] (cerebellum, vs ^3 H-2-oxo-quazepam) amounted to 19 times; in data set [5] (cortex, vs ^3 H-2-oxo-quazepam) it was 6 times. Also, in data set [5] (low concentrations (0.5 nM)), the “BZ-1 selectivity of binding” value was “binds BZ-1 receptors almost exclusively”. The best-fit curve model result in data set [5] is “single site curve fitting model”. For the same compound, in data set [5] (vs ^3 H-2-oxo-quazepam, cortex and cerebellum), the “potency in cortex compared with cerebellum” value is “roughly equipotent”. Also, the non-specific binding in data set [1] is under 5%. Besides, the “subpopulations of BZ receptors distinguished” value in data set [6] is on record as “distinguish two subpopulations of benzodiazepine (BZ) receptors”.

In the case of `Fc1ccccc1C1=NCC(=S)N(CC(F)(F)F)c2ccc(Cl)cc21` [quazepam, 7-chloro-1-(2,2,2-trifluorethyl)-5-(2-fluorophenyl)-1,3-dihydro-2H-1,4 benzodiazpeine-2-thione, reference compound], in data set [3] (rat cortex), the “difference in binding affinity for two BZ receptors (BZ-1 and BZ-2)” value came out at 54 fold; the “populations of binding sites distinguished” value was “distinguished two subpopulations”. The compound also yielded an IC50 in data set [4] of 258 nM. For the same compound, in data set [5], the IC50 stood at 101 nM and the best-fit curve model result is reported as “single site curve fitting model”. The behavioural effect result in data set [8] is “only drowsiness and sleep”.

Take `CN1C(=O)CN=C(c2ccccc2F)c2cc([N+](=O)[O-])ccc21` [flunitrazepam, reference compound]: in data set [3] (benzodiazepine receptors), the “receptor subtype specificity of binding” value is reported as “binds non-specifically to benzodiazepine receptors”. Besides, the “populations of binding sites distinguished” value in data set [3] (rat cortex) is reported as “only a single uniform population of sites”.
